Reference: patent publication US7214386B2, “Method for the treatment and prevention of overweight in mammals” (priority 2002, dated 2007)

Experiments:
[1] = Plasma insulin in rats (radioimmunoassay); settings: rats on high fat diet, after 2½ weeks of treatment versus after 1 week on the high fat diet
[2] = Plasma glucose in rats (oxidase-peroxidase method); settings: rats on high fat diet, after 2½ weeks of treatment versus after 1 week on the high fat diet
[3] = test system: 3T3-L1 cells; assay: Effect of dill extract on isoprenaline-stimulated lipolysis (glycerol formation) in differentiated 3T3-L1 cells; type: cell-based; settings: 24 hours incubation, glycerol formation of sample A divided by that of sample B (isoprenaline alone)
Experimental: 3T3-L1 cells were grown in T75 flasks. The cells were detached by trypsin incubation (±5 min at 37° C.). After detachment, 4 ml lipolysis standard medium was added to the flask (DMEM; 10% fetal calf serum; 4.5 g/l D-glucose; 100 U/ml penicillin; 100 μg/ml streptomycin) and the cells were suspended therein. The cell suspension was then diluted in lipolysis standard medium to 50000 cells/ml (5000 cells/100 μl), and 100 μl of this diluted cell mix was transferred to a precoated well in a 96 wells plate. […] Thereafter the solution was removed). After incubation for 48 hours at 37° C., the medium was refreshed (removal of old medium and addition of 100 μl lipolysis standard medium) and the cells incubated at 37° C. After 72 hours, the supernatant was removed and 100 μl differentiation medium (5 μg/ml bovine insuline; 0.25 μM dexamethasone; 0.5 mM IBMX; in standard medium) was added. […] After 24 hours incubation at 37° C., the glycerol concentration in the supernatant was determined using a glycerol assay (Sigma Cat.no. 337) against a standard curve of glycerol in lipolysis standard medium. The relative lipolysis inhibiting activity of the dill extract was calculated by dividing the glycerol formation of sample A of interest by the glycerol formation of sample B.

Compound	plasma insulin levels (FIG. 3) [1]	plasma glucose levels (FIG. 3) [2]	Relative lipolysis inhibiting effect [3]
Cn1c(=O)c2c(ncn2C)n(C)c1=O [caffeine]	no reduction	significant reduction	–
CC(C)NCC(O)c1ccc(O)c(O)c1 (stereo not drawn) [isoprenaline]	–	–	1
